Laboratory results from patent publication US9447083B2, “N-acylhydrazone derivatives for selective T cell inhibitor and anti-lymphoid malignancy drug” (CHONG KUN DANG PHARMACEUTICAL CORP., priority 2012, dated 2016).

Key:
Jurkat T cells = assay: Pro-apoptotic activity on Jurkat T cells (FITC-Annexin V / 7-AAD flow cytometry); format: cell-based; conditions: Homo sapiens, 72 hours, cells stained with FITC-Annexin V and 7-AAD among total cells, read-out: Cell Apoptosis Effect to Jurkat T Cell (% in 5 μM)
Method in brief: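 Jurkat cells at 1.5×10^5 cells/mL in RPMI/10% FBS treated with compounds at […] or 5 μM final for 72 h at 37° C, vehicle containing 1% DMSO. Stained with FITC-Annexin V and 7-AAD for 15 min at room temperature in pH 7.4 Hepes binding buffer. Apoptosis = % double-stained cells by flow cytometry.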

[1] = system: Experimental Autoimmune Encephalomyelitis (EAE); assay: Experimental Autoimmune Encephalomyelitis (EAE) model of multiple sclerosis; format: in vivo, mouse
Experimental: At the first day of induction, myelin oligodendrocyte glycoprotein35-55 (MOG35-55, Peptron) (200 ug), mycobacterium tuberculosis (Difco, Cat No. 231141) (500 μg) and complete Freund's adjuvant (Sigma Aldrich, Cat No. F5506) were mixed with each other and immersed for 5 minutes. 0.1 mL of the immersed peptide was injected subcutaneously into both the flanks of each of C57BL/6 mice (9 week old, female, 18±2 g), followed by that […] pertussis toxin (Sigma Aldrich, Cat No. P2980) (200 ng) was injected by intravenously. At 2 days, the same amount of pertussis toxin was administered intravenously. Whether the immersion leaked from the injected portion of the mice was checked, and whether EAE was induced was also examined by visual observation from 7 days.
Compound 229 and Fingolimod that is currently clinically used for the treatment of multiple sclerosis were completely dissolved in a Cremophor EL-ethanol mixture (1:1, v/v) in an amount corresponding to 7.5% (v/v) of the administration volume, and the compound solution was diluted in PBS. The two groups of the mice were administered orally with 200 μL of the diluted solution of compound 229 at each doses of 25 and 50 mg/kg separately, and the third group of the mice was administered orally with 200 μL of the diluted solution of fingolimode at a dose of 1 mg/kg on a daily basis from 17 days to 37 days (for total 21 times) after starting of the experiment. In a vehicle control group, 200 μL of a Cremophor EL-ethanol-PBS mixture (3.75:3.75:92.5, v/v/v) was administered to each mouse in the same manner as the treated group. The index of EAE was recorded daily based on visual observation using a severity index system (6-point (0 to 5) scale) from 7 days of the experiment. The symptoms of multiple sclerosis were evaluated based on the following criteria:
2: limp tail and hind limb weakness;
4: hind limb paralysis and forelimb weakness; and […]

Jurkat = assay: Apoptosis of lymphoid malignancy cell lines (Annexin V / 7-AAD): Jurkat; format: cell-based; conditions: Homo sapiens, Acute T cell leukemia, 24 hours, read-out: Administration Dose (mean ± SD, μmol/L) Lethal Dose 50 (Apoptosis)
Experimental: (§1) Each of the acute T cell leukemia cell lines Jurkat, Molt4 and CCRF-CEM, the acute B cell leukemia cell line Raji and the […] cell lines KMS11, KMS12BM, KMS26, KMS28BM, and IM9 was re-suspended in 10% FBS-containing RPMI medium at a concentration of 1.5×10^5 cells/mL, and 200 μL of each of the cell suspensions was cultured in a flat bottom 96-well plate (Costar). The acute NK cell lymphoma cell line NK-92MI was re-suspended in α-MEM medium (supplemented with 20% FBS, 1×MEM vitamine solution, 50 μM 2-mercaptoethanol and 1× penicillin/streptomycin) at a concentration of 1.5×10^5 cells/mL, and 200 μL of the cell suspension was cultured in a flat bottom 96-well plate. The cells in each well was treated with 10 μL of each of 0.1, 0.25, 0.5, 0.75 and 1 μM of the compound diluted with RPMI medium, followed by that the cells were incubated in a 5% CO2 incubator at 37° C. for 24 hours. In a vehicle control group, cells were treated with 10 μL of medium containing 0.05% dimetylsulfoxide (DMSO, Sigma).
(§2) The cells were collected, and then the apoptosis thereof was analyzed by a flow cytometer after staining with Annexin V-7-AAD. The incubated cells were collected, placed in a 5-mL FACS tube (BD Falcon) and washed with 1 mL of fluorescence activated cell sorting (FACS) buffer (1%. FBS and 0.1% sodium azaide in PBS). The cells were re-suspended in 0.1 mL of FACS buffer, followed by that the cells were treated and stained with phycoerythrin-Annexin V at room temperature for 10 minutes. After 10 minutes of staining, the cells were treated and stained with 7-AAD at room temperature for 5 minutes. The stained cells were suspended in 0.3 mL of FACS buffer, and then analyzed by a flow cytometer. […] Thus, compounds 065, 108, 229 and 457 of the present invention can be used as a novel anti-lymphoid malignancy drug.

Molt4 = assay: Apoptosis of lymphoid malignancy cell lines: Molt4; format: cell-based; conditions: Homo sapiens, MOLT-4, 24 h, read-out: Administration Dose (mean ± SD, μmol/L) Lethal Dose 50 (Apoptosis)
Experimental: as §1, §2

IM9 = assay: Apoptosis of lymphoid malignancy cell lines: IM9; format: cell-based; conditions: Homo sapiens, IM-9, 24 h, read-out: Administration Dose (mean ± SD, μmol/L) Lethal Dose 50 (Apoptosis)
Experimental: as §1, §2

KMS11 = assay: Apoptosis of lymphoid malignancy cell lines: KMS11; format: cell-based; conditions: Homo sapiens, KMS-11; KMS11, Multiple myeloma, 24 hours; read-out: Administration Dose (mean ± SD, μmol/L) Lethal Dose 50 (Apoptosis)
Experimental: as §1, with “In a vehicle control group, cells were treated with 10 μL of medium containing 0.05% dimetylsulfoxide (DMSO, Sigma).” left out
The cells were collected, and then the apoptosis thereof was analyzed by a flow cytometer after staining with Annexin V-7-AAD. The incubated cells were collected, placed in a 5-mL FACS tube (BD Falcon) and washed with 1 mL of fluorescence activated cell sorting (FACS) buffer (1%. FBS and 0.1% sodium azaide in PBS). […] The stained cells were suspended in 0.3 mL of FACS buffer, and then analyzed by a flow cytometer. […]

KMS20 = assay: Apoptosis of lymphoid malignancy cell lines: KMS20; format: cell-based; conditions: KMS-20; KMS20, Multiple myeloma, 24 hours; read-out: Administration Dose (mean ± SD, μmol/L) Lethal Dose 50 (Apoptosis)

Cc1cc(C)c(OCC(=O)N/N=C/c2ccc3cc[nH]c3c2)c(C2CCOC2)c1 (stereo not shown) [Compound 229, (E)-N′-((1H-indol-6-yl)methylene)-2-(2,4-dimethyl-6-(tetrahydrofuran-3-yl)phenoxy)acetohydrazide]
cytotoxicity at 5 µM (Jurkat T cells): 100% | severity index (EAE, 0 to 5 scale) ([1]; 25 mg/kg orally daily from 17 to 37 days, at 17 days (start of administration)): 3±1 | severity index (EAE, 0 to 5 scale) ([1]; 25 mg/kg orally daily from 17 to 37 days, at 39 days, vehicle 2.5±0.75): 1.25±0.75 | severity index (EAE, 0 to 5 scale) ([1]; 25 mg/kg orally daily from 17 to 37 days, at 55 days): 1.17±0.75 | severity index (EAE, 0 to 5 scale) ([1]; 25 mg/kg orally daily from 17 to 37 days, at 101 days, vehicle 2.33±0.25): 1.83±0.5 | severity index (EAE, 0 to 5 scale) ([1]; 50 mg/kg orally daily from 17 to 37 days, at 17 days (start of administration)): 3±0.75 | severity index (EAE, 0 to 5 scale) ([1]; 50 mg/kg orally daily from 17 to 37 days, at 39 days, vehicle 2.5±0.75): 0.9±0.25 | severity index (EAE, 0 to 5 scale) ([1]; 50 mg/kg orally daily from 17 to 37 days, at 101 days, vehicle 2.33±0.25): 0.63±0.25 | EC50 (Jurkat): 0.62 µmol/L | EC50 (Molt4): 1.3 ± 0.05 µmol/L | EC50 (IM9): 0.9 ± 0.03 µmol/L | EC50 (KMS11): 0.35 ± 0.09 µmol/L | EC50 (KMS20): 0.74 ± 0.05 µmol/L
